According to EP1888615B1, “17 -HSD1 AND STS INHIBITORS” (Abbott Products GmbH, priority 2005, dated 2006):

Target: T1, recombinant human 17β-hydroxysteroid dehydrogenase type 1 (Homo sapiens, UniProt P14061)
T1 construct: made in house; host or cells: Sf9 insect cells (baculovirus, Bac to Bac Expression System)
T1 sequence (P14061 1-328): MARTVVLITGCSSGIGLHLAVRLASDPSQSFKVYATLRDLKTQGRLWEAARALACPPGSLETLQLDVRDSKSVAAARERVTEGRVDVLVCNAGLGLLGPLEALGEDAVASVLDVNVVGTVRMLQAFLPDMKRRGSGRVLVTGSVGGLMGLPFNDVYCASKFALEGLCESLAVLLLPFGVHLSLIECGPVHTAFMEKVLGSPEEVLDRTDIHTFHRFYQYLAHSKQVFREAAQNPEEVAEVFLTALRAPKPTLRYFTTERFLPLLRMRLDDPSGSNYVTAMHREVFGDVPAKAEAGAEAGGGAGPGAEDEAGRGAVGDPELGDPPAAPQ
Assay: Inhibition of recombinant human 17β-hydroxysteroid dehydrogenase type 1 (conversion of 3H-estrone to estradiol, HPLC radiodetection)
Type: biochemical
Settings: 30 nM 3H-estrone, 1 mM NADPH, 30 min at RT; for inhibition: inhibitor 1 µm, read-out: Inhibition of rec 17β-HSD1
Method: 17β-HSD1 purification: Recombinant baculovirus was generated by the "Bac to Bac Expression System" (Invitrogen). Recombinant bacmid was transfected to Sf9 insect cells using "Cellfectin Reagent" (Invitrogen). 60h later cells were harvested; the microsomal fraction was isolated as described by Puranen et al. (1994). Aliquots were stored frozen until determination of enzymatic activity.
Assay - Inhibition of recombinant human 17β-hydroxysteroid dehydrogenase type 1: Recombinant protein (0.1µg/ml) was incubated in 20 mM KH2PO4 pH 7.4 with 30 nM 3H-estrone and 1 mM NADPH for 30 min at RT, in the presence of potential inhibitors at concentrations of 1 µM or 0.1 µM. Inhibitor stock solutions were prepared in DMSO. Final concentration of DMSO was adjusted to 1 % in all samples. The enzyme reaction was stopped by addition of 10 % trichloroacetic acid (final concentration). Samples were centrifuged in a microtiter plate at 4000 rpm for 10 min. Supernatants were applied to reverse phase HPLC on a Waters Symmetry C18 column, equipped with a Waters Sentry Guard column. Isocratic HPLC runs were performed at RT at a flow rate of 1 ml/min of acetonitrile:water 48:52 as running solvent. Radioactivity was monitored in the eluate by a Packard Flow Scintillation Analyzer. Total radioactivity for estrone and estradiol were determined in each sample and percent conversion of estrone to estradiol was calculated according to the following formula: % conversion = 100 × ({(cpm estradiol in sample with inhibitor)/[(cpm estrone in sample with inhibitor)+(cpm estradiol in sample with inhibitor)]})/({(cpm estradiol in sample without inhibitor)/[(cpm estrone in sample without inhibitor)+(cpm estradiol in sample without inhibitor)]}). [formula] [formula]
Table 19: Inhibition of 17β-HSD enzyme type I

Structure (SMILES)	inhibition	Inhibition of rec 17β-HSD1 (inhibitor 100 nM)
CCCc1cc2c(cc1O)CC[C@H]1[C@@H]3[C@H](CCCC(=O)NCCOC)CC(=O)[C@@]3(C)CC[C@H]21 [Example 41]	70.4%	
COc1cc(CNC(=O)CC[C@@H]2CC(F)(F)[C@@]3(C)CC[C@@H]4c5ccc(O)cc5CC[C@H]4[C@H]23)cc(OC)c1 [Example 128]	71.7%	
COc1ccc(CCN(C)C(=O)CCC[C@H]2CC(F)(F)[C@@]3(C)CC[C@@H]4c5ccc(O)cc5CC[C@H]4[C@H]23)cc1OC [Example 116]	82.4%	
CCCc1cc2c(cc1O)CC[C@H]1[C@@H]3[C@H](CCCC(=O)N(C)Cc4ccccc4)CC(=O)[C@@]3(C)CC[C@H]21 [Example 37]	74.7%	
Cc1cccc2c(CCNC(=O)CC[C@@H]3CC(F)(F)[C@@]4(C)CC[C@@H]5c6ccc(O)cc6CC[C@H]5[C@H]34)c[nH]c12 [Example 129]	76.9%	
CCCc1cc2c(cc1O)CC[C@H]1[C@@H]3[C@H](CCCC(=O)NCc4ccccc4)CC(=O)[C@@]3(C)CC[C@H]21 [Example 2, N-Benzyl-4-(3-hydroxy-17-oxo-2-propyl-estra-1,3,5(10)-trien-15β-yl)-butyramide]	74.8%	
COc1cc2c(cc1O)CC[C@H]1[C@@H]3[C@@H](CCCC(=O)NCc4ccccc4)CC(=O)[C@@]3(C)CC[C@H]21 [Example 71]	70.6%	
CCN(CC)C(=O)CC[C@@H]1CC(F)(F)[C@@]2(C)CC[C@@H]3c4ccc(O)cc4CC[C@H]3[C@H]12 [Example 133]	90.6%	
CCCc1cc2c(cc1O)CC[C@H]1[C@@H]3[C@H](CCCC(=O)NCCc4c[nH]c5c(C)cccc45)CC(=O)[C@@]3(C)CC[C@H]21 [Example 34]	71.9%	
C[C@]12CC[C@@H]3c4ccc(O)cc4CC[C@H]3[C@@H]1[C@@H](CCCC(=O)NCc1ccc(O)c(O)c1)CC2(F)F [Example 109]	70.7%	
COc1cc2c(cc1O)CCC1C2CCC2(C)C(=O)CC(CCCC(=O)N3CCCCC3)C12 (stereo not drawn) [Example 78]	72%	40.6%
COc1ccc(CCN(C)C(=O)CC[C@@H]2CC(F)(F)[C@@]3(C)CC[C@@H]4c5ccc(O)cc5CC[C@H]4[C@H]23)cc1OC [Example 134]	88.6%	
CCCc1cc2c(cc1O)CC[C@H]1[C@@H]3[C@H](CCCC(=O)N(C)CCc4ccc(OC)c(OC)c4)CC(=O)[C@@]3(C)CC[C@H]21 [Example 38]	76.7%	
CCCc1cc2c(cc1O)CC[C@H]1[C@@H]3[C@H](CCCC(=O)NCc4ccc5c(c4)OCO5)CC(=O)[C@@]3(C)CC[C@H]21 [Example 30]	73.6%	
COCCc1cc2c(cc1O)CC[C@H]1[C@@H]3[C@H](CCCC(=O)NCc4ccccc4)CC(=O)[C@@]3(C)CC[C@H]21 [Example 3, N-Benzyl-4-(3-hydroxy-2-(2-methoxy-ethyl)-17-oxo-estra-1,3,5(10)-trien-15β-yl)-butyramide]	71.2%	
C[C@]12CC[C@@H]3c4ccc(O)cc4CC[C@H]3[C@@H]1[C@@H](CCCC(=O)NCc1ccccc1)CC2(F)F [Example 106]	68%	
CCCc1cc2c(cc1O)CC[C@H]1[C@@H]3[C@H](CCCC(=O)N4CCCCC4)CC(=O)[C@@]3(C)CC[C@H]21 [Example 36]	78.1%	
C[C@]12CC[C@@H]3c4ccc(O)cc4CC[C@H]3[C@@H]1[C@H](CCC(=O)N1CCCCC1)CC2(F)F [Example 131]	71.9%	
C[C@]12CC[C@@H]3c4ccc(O)cc4CC[C@H]3[C@@H]1[C@H](CCC(=O)NC1CC1)CC2(F)F [Example 120]	85%	
C[C@]12CC[C@@H]3c4ccc(O)cc4CC[C@H]3[C@@H]1[C@H](CCC(=O)NC1CCCCC1)CC2(F)F [Example 121]	92.5%	
C[C@]12CC[C@@H]3c4ccc(O)cc4CC[C@H]3[C@@H]1[C@H](CCC(=O)NCc1ccc(O)c(O)c1)CC2(F)F [Example 127]	81.3%	

Structure (SMILES)	inhibition	Inhibition of rec 17β-HSD1 (inhibitor 100 nM)
CCOc1cc2c(cc1O)CC[C@H]1[C@@H]3[C@@H](CCCC(=O)NCCc4c[nH]c5c(C)cccc45)CC(=O)[C@@]3(C)CC[C@H]21 [Example 52]	72.2%	
CCCc1cc2c(cc1O)CC[C@H]1[C@@H]3[C@H](CCCC(=O)NCc4cccnc4)CC(=O)[C@@]3(C)CC[C@H]21 [Example 32]	79%	
C[C@]12CC[C@@H]3c4ccc(O)cc4CC[C@H]3[C@@H]1[C@@H](CCCC(=O)N1CCOCC1)CC2(F)F [Example 91, 4-(17,17-Difluoro-3-hydroxy-estra-1,3,5(10)-trien-15a-yl)-1-morpholin-4-yl-butan-1-one]	85%	
Cc1cnc(NC(=O)CC[C@@H]2CC(F)(F)[C@@]3(C)CC[C@@H]4c5ccc(O)cc5CC[C@H]4[C@H]23)s1 [Example 93, 3-(17,17-Difluoro-3-hydroxy-estra-1,3,5(10)-trien-15β-yl)-N-(5-methyl-thiazol-2-yl)-propionamide]	86.7%	
C[C@]12CC[C@@H]3c4ccc(O)cc4CC[C@H]3[C@@H]1[C@@H](CCCC(=O)NC1CCCCC1)CC2(F)F [Example 102]	70.6%	
CCOc1cc2c(cc1O)CC[C@H]1[C@@H]3[C@@H](CCCC(=O)N4CCCCC4)CC(=O)[C@@]3(C)CC[C@H]21 [Example 55]	71.9%	
C[C@]12CC[C@@H]3c4ccc(O)cc4CC[C@H]3[C@@H]1[C@H](CCC(=O)NCc1ccc3c(c1)OCO3)CC2(F)F [Example 122]	77.9%	
Cc1cccc2c(CCNC(=O)CCC[C@H]3CC(F)(F)[C@@]4(C)CC[C@@H]5c6ccc(O)cc6CC[C@H]5[C@H]34)c[nH]c12 [Example 111]	68.3%	
CCCc1cc2c(cc1O)CC[C@H]1[C@@H]3[C@H](CCCC(=O)NCc4ccc(F)cc4F)CC(=O)[C@@]3(C)CC[C@H]21 [Example 42]	71.7%	
COc1cc2c(cc1O)CC[C@H]1[C@@H]3[C@@H](CCCC(=O)NC4CCCCC4)CC(=O)[C@@]3(C)CC[C@H]21 [Example 67]	73.2%	
COc1cc2c(cc1O)CC[C@H]1[C@@H]3[C@@H](CCCC(=O)Nc4ccc5cn[nH]c5c4)CC(=O)[C@@]3(C)CC[C@H]21 [Example 83]	71.6%	
C[C@]12CC[C@@H]3c4ccc(O)cc4CC[C@H]3[C@@H]1[C@H](CCCC(=O)N1CCOCC1)CC2(F)F [Example 90, 4-(17,17-Difluoro-3-hydroxy-estra-1,3,5(10)-trien-15β-yl)-1-morpholin-4-yl-butan-1-one]	81.6%	
C[C@]12CC[C@@H]3c4ccc(O)cc4CC[C@H]3[C@@H]1[C@H](CCC(=O)NCc1ccccc1)CC2(F)F [Example 125]	76.9%	
CCOc1cc2c(cc1O)CC[C@H]1[C@@H]3[C@@H](CCCC(=O)NCc4ccc5c(c4)OCO5)CC(=O)[C@@]3(C)CC[C@H]21 [Example 45]	75.7%	
CCCc1cc2c(cc1O)CC[C@H]1[C@@H]3[C@H](CCCC(=O)Nc4ccc5cn[nH]c5c4)CC(=O)[C@@]3(C)CC[C@H]21 [Example 40]	75.8%	
CCOc1cc2c(cc1O)CC[C@H]1[C@@H]3[C@@H](CCCC(=O)NC4CCCCC4)CC(=O)[C@@]3(C)CC[C@H]21 [Example 44]	75%	
C[C@]12CC[C@@H]3c4ccc(OCc5ccccc5)cc4CC[C@H]3[C@@H]1[C@H](C/C=C/C(=O)N1CCOCC1)c1cnoc12 [161']	74%	
C[C@]12CC[C@@H]3c4ccc(O)cc4CC[C@H]3[C@@H]1[C@@H](CCCC(=O)N1CCCCC1)CC2(F)F [Example 113]	76.9%	
CCCc1cc2c(cc1O)CC[C@H]1[C@@H]3[C@H](CCCC(=O)N4CCOCC4)CC(=O)[C@@]3(C)CC[C@H]21 [Example 6, 3-Hydroxy-15β-(4-morpholin-4-yl-4-oxo-butyl)-2-propyl-estra-1,3,5(10)-trien-17-one]	79.3%	
CCOc1cc2c(cc1O)CC[C@H]1[C@@H]3[C@@H](CCCC(=O)Nc4ccc5cn[nH]c5c4)CC(=O)[C@@]3(C)CC[C@H]21 [Example 59]	69.7%	
